In US9415040B2 (priority 2008, dated 2016):

Assays:
[1] = system: Chromobacterium violaceum
LuxN F202A = details: even at 500 μM AI-1, EC50 could not be assigned
LuxN S205P = details: even at 500 μM AI-1, EC50 could not be assigned
LuxN P226T = details: even at 500 μM AI-1, EC50 could not be assigned
LuxN E233A = details: even at 500 μM AI-1, EC50 could not be assigned
[2] = system: LuxN F163A/R245L/S184N/G271D; details: quadruple mutant LuxN F163A/R245L/S184N/G271D; EC50 could not be determined

| SMILES | Median survival of C. elegans [1] [days] | Light production phenotype with AI-1 (LuxN F202A) | Light production phenotype with AI-1 (LuxN S205P) | Light production phenotype with AI-1 (LuxN P226T) | Light production phenotype with AI-1 (LuxN E233A) | Light production phenotype with AI-1 [2] |
| --- | --- | --- | --- | --- | --- | --- |
| N[C@H]1CCOC1=O [HSL] | 4 |  |  |  |  |  |
| CC(O)CC(=O)NC1CCOC1=O (stereo not drawn) [AI-1, 3-hydroxybutanoyl homoserine lactone] |  | dark phenotype | dark phenotype | dark phenotype | dark phenotype | constitutively bright at all AI-1 concentrations |
